Key:
[1] = Plasma protein binding by equilibrium dialysis, mouse; format: in vitro ADME; conditions: read-out: plasma protein binding, Fu (fraction unbound)
Description: The software package StarDrop by Optibrium was used to calculate physicochemical parameters including log P, molecular weight, and polar surface area (PSA). The aqueous kinetic solubility of the compounds was measured using laser nephelometry as previously described.[40] The plasma protein binding of the compounds was determined by the equilibrium dialysis method.[12]

[2] = test system: panel of receptors, including dopamine, serotonin, histamine, and muscarinic receptors; experiment: NIMH Psychoactive Drug Screening Program (PDSP) receptor panel; format: binding; conditions: significant inhibition is considered > 50%
Description: However, the observed toxicity prevents further progression of the compounds. To try and identify a possible driver for toxicity, that may then offer an opportunity to design out this unwanted effect, the key compounds were screened against a panel of receptors at the NIMH Psychoactive Drug Screening Program (PDSP).[36],[37] No significant activity against a large panel of receptors, including dopamine, serotonin, histamine, and muscarinic receptors (see Supporting Information) was observed.
S2: Details of receptors screened at the NIMH Psychoactive Drug Screening Program […]
receptors screened. Significant inhibition is considered > 50%. In cases where negative inhibition (-) is seen, this represents a stimulation of binding. The receptors screened were 5- […]
HT7, Alpha1A, Alpha1B, Alpha1D, Alpha2A, Alpha2B, Alpha2C, Beta1, Beta2, Beta3, BZP rat Brain site, D1, D2, D3, D4, D5, DAT, DOR, GABBA, H1, H2, H3, KOR, M1, M2, M3, M4, M5, MOR, NET, PBR, SERT, Sigma1 and Sigma2

in vitro = conditions: human, MRC-5 fibroblasts
Description: Proliferation assays using bloodstream form T. brucei brucei and human MRC-5 fibroblasts were conducted using a modification of the cell viability assay as previously reported.[27],[39]
MRC-5 cells (2000 cells per well) were seeded in 200 μL of DMEM, 10% FCS, and allowed to adhere overnight. One microliter of test compound was added to each well on the day of assay initiation.
The final DMSO level was 0.5% in all cases.

For `CNC(=O)[C@H]1Cc2ccccc2N1C(=O)Cc1ccc(F)cc1` [Compound 47, (R)-1-(2-(4-Fluorophenyl)acetyl)-N-methylindoline-2-carboxamide], the fraction unbound [1] was 0.59, the “inhibition against receptors screened” value [2] was “did not show significant inhibitor” and the EC50 at 69 h (in vitro) was > 50 µM.

Source: paper PMC4601051, “Discovery of Indoline-2-carboxamide Derivatives as a New Class of Brain-Penetrant Inhibitors of Trypanosoma brucei” (Journal of Medicinal Chemistry, 2015)
